Columns and labels:
[1] = molecular target: T1, N-terminally GST-tagged mTOR (Homo sapiens, UniProt P42345); experiment: In vitro mTOR binding assay (LanthaScreen TR-FRET); conditions: LanthaScreen kinase binding, Tracer 314; read-out: mTOR IC50 (binding)
T1 construct: truncated version: amino acids 1360-2549; purchased Life Technologies PR8683B
Protocol: A 10-point 4-fold serial dilution (highest concentration at 10 μmol/L and lowest concentration at 40 μmol/L) of each compound was tested for mTOR binding in duplicate in a 384-well plate. […] After 30 min incubation at RT, time-resolved FRET was measured with a Synergy 4 multi-mode microplate reader (Biotek Instruments) using the following settings: 100 microsecs delay before data collection, 200 microsecs time for data collection, 10 measurements per data point.
IC50 values of each compound were determined by plotting the emission ratio versus the compound concentrations (in logarithmic scale) and then by fitting a sigmoidal dose-response curve with variable slope to the data using GraphPad™ Prism.

[2] = system: pPKB S473 in A2058 cells; experiment: In-cell Western blot, pPKB S473; assay type: cell-based; conditions: Homo sapiens, 1 hour treatment
Protocol: (§1) Cells are fixed with 4% paraformaldehyde for 30 minutes at room temperature, washed 2 times with 1% BSA in PBS, permeabilized with 0.1% Triton X-100 in PBS/1% BSA for 30 minutes at room temperature and blocked with 5% goat serum in PBS/1% BSA/0.1% Triton X-100 for 30 minutes at room temperature. […] Cells are washed 3 times 5 minutes with PBS/1% BSA/0.1% triton and plate scanned with the Odyssey Infrared Scanning system using both 700 and 800 nm channels. […] To correct for background staining in the data analysis wells are treated only with secondary antibodies.
(§2) For data analysis the mean background signal from channel 700 nm and 800 nm are subtracted from each signal in channel 700 nm and 800 nm, respectively.
(§3) IC50 values of each compound are determined by plotting the normalized pPBK S473 and pS6 S235/S236 signals, respectively, versus the compound concentrations (in logarithmic scale) and then by fitting a sigmoidal dose-response curve with variable slope to the data using GraphPad™ Prism.

[3] = system: pS6 S235/S236 in A2058 cells; experiment: In-cell Western blot, pS6 S235/S236; assay type: cell-based; conditions: Homo sapiens, 1 hour treatment
Protocol: as §1, §2, §3

T1 sequence (P42345 1360-2549): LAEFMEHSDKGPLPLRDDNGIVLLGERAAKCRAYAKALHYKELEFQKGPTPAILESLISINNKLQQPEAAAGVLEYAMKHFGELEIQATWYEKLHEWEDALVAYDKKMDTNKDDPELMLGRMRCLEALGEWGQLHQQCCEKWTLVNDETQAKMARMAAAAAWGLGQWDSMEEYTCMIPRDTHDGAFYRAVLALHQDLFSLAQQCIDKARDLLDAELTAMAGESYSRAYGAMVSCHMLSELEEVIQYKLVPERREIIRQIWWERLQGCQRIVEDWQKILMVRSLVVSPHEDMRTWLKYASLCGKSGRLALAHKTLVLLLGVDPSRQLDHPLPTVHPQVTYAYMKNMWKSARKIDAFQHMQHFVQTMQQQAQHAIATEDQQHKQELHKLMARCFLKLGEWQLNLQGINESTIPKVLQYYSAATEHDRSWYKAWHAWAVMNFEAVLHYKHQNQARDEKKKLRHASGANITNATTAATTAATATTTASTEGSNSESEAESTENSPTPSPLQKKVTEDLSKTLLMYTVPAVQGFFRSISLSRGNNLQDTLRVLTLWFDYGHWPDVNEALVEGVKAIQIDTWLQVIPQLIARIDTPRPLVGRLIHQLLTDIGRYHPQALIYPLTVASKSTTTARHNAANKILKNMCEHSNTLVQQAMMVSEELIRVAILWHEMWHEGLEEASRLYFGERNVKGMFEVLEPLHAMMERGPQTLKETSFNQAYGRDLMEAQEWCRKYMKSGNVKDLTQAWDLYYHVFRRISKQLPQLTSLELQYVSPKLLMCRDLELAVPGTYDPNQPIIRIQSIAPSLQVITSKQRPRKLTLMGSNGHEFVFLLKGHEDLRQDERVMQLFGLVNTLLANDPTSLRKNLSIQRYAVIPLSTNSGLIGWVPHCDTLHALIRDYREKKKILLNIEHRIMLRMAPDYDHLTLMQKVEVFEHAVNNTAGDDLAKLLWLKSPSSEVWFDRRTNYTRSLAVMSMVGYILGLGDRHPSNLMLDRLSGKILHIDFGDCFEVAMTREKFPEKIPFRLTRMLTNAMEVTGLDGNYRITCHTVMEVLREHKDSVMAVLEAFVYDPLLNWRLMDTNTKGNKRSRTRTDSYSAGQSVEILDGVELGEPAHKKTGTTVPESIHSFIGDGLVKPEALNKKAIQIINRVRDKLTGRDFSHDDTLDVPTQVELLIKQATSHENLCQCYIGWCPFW

Row | Compound | IC50 [1] | IC50 [2] | IC50 [3] | IC50 ([2]; A2058, 1 h) | IC50 ([3]; A2058, 1 h)
1 | C[C@@H]1COC[C@H](C)N1c1nc(-c2cnc(N)cc2C(F)F)nc(N2[C@H](C)COC[C@@H]2C)n1 [Compound 40, 5-[4,6-bis[(3R,5S)-3,5-dimethylmorpholin-4-yl]-1,3,5-triazin-2-yl]-4-(difluoromethyl)pyridin-2-amine] | 5 nM | 252 nM | 160 nM | – | –
2 | C[C@@H]1COCCN1c1nc(-c2cnc(N)cc2C(F)F)nc(N2[C@@H](C)COC[C@@H]2C)n1 [Compound 79, 4-(difluoromethyl)-5-[4-[(3S,5S)-3,5-dimethylmorpholin-4-yl]-6-[(3R)-3-methylmorpholin-4-yl]-1,3,5-triazin-2-yl]pyridin-2-amine] | 10 nM | – | – | 200 nM | 136 nM
3 | COC[C@@H]1COCCN1c1nc(-c2cnc(N)cc2C(F)F)nc(N2CCOC[C@H]2C)n1 [Compound 46, 4-(difluoromethyl)-5-[4-[(3R)-3-(methoxymethyl)morpholin-4-yl]-6-[(3R)-3-methylmorpholin-4-yl]-1,3,5-triazin-2-yl]pyridin-2-amine] | 36 nM | – | – | 956 nM | 426 nM
4 | C[C@H]1COCCN1c1cc(-c2cnc(N)cc2C(F)(F)F)nc(N2CCOCC2)n1 [reference compound] | 376 nM | – | – | 883 nM | 1100 nM
5 | C[C@H]1COCCN1c1nc(-c2cnc(N)nc2C(F)F)nc(N2CCOCC2)n1 [Compound 9] | 24 nM | 35 nM | 72 nM | – | –
6 | C[C@H]1COCCN1c1nc(-c2cnc(N)nc2C(F)F)cc(N2CCOCC2)n1 [Compound 32, (S)-4′-(difluoromethyl)-2-(3-methylmorpholino)-6-morpholino-[4,5′-bipyrimidin]-2′-amine] | 293 nM | 100 nM | 387 nM | – | –
7 | C[C@H]1COCCN1c1cc(-c2cnc(N)nc2C(F)(F)F)nc(N2CCOC[C@@H]2C)n1 [reference compound] | 287 nM | – | – | 193 nM | 617 nM
8 | Nc1ncc(-c2nc(N3CCOCC3)cc(N3CCOCC3)n2)c(C(F)(F)F)n1 [reference compound] | 1920 nM | – | – | 175 nM | 370 nM
9 | C[C@@H]1COCCN1c1nc(-c2cnc(N)cc2C(F)F)nc(N2CCOCC23CCC3)n1 [Compound 88, 4-(difluoromethyl)-5-[4-[(3R)-3-methylmorpholin-4-yl]-6-(8-oxa-5-azaspiro[3.5]nonan-5-yl)-1,3,5-triazin-2-yl]pyridin-2-amine] | 18 nM | – | – | 271 nM | 192 nM
10 | Nc1cc(C(F)F)c(-c2cc(N3C4CCC3COC4)nc(N3C4CCC3COC4)n2)cn1 [Compound 22, 5-(6-(3-oxa-8-azabicyclo[3.2.1]octan-8-yl)-2-(3-oxa-8-azabicyclo[3.2.1]octan-8-yl)pyrimidin-4-yl)-4-(difluoromethyl)pyridin-2-amine] | 18 nM | – | – | 57 nM | 216 nM
11 | C[C@@H]1COC[C@H](C)N1c1nc(-c2cnc(N)cc2C(F)F)nc(N2CCOCC2(C)C)n1 [Compound 66, 4-(difluoromethyl)-5-[4-(3,3-dimethylmorpholin-4-yl)-6-[(3R,5S)-3,5-dimethylmorpholin-4-yl]-1,3,5-triazin-2-yl]pyridin-2-amine] | 4 nM | – | – | 244 nM | 139 nM
12 | C[C@H]1COCCN1c1nc(-c2cnc(N)cc2C(F)F)nc(N2CCOCC2)n1 [Compound 8, (S)-4-(difluoromethyl)-5-(4-(3-methylmorpholino)-6-morpholino-1,3,5-triazin-2-yl)pyridin-2-amine] | 10 nM | 74 nM | 68 nM | – | –
13 | CC1(C)COCCN1c1nc(-c2cnc(N)cc2C(F)F)nc(N2CCOCC2)n1 [Compound 42, 4-(difluoromethyl)-5-[4-(3,3-dimethylmorpholin-4-yl)-6-morpholino-1,3,5-triazin-2-yl]pyridin-2-amine] | 3 nM | – | – | 54 nM | 45 nM
14 | C[C@H]1COCCN1c1cc(-c2cnc(N)nc2C(F)(F)F)nc(N2CCOCC2)n1 [reference compound] | 1250 nM | – | – | 290 nM | 1030 nM
15 | C[C@@H]1COCCN1c1nc(-c2cnc(N)cc2C(F)F)nc(N2[C@H](C)COC[C@H]2C)n1 [Compound 78, 4-(difluoromethyl)-5-[4-[(3R,5R)-3,5-dimethylmorpholin-4-yl]-6-[(3R)-3-methylmorpholin-4-yl]-1,3,5-triazirin-2-yl]pyridin-2-amine] | 38 nM | – | – | 506 nM | 392 nM
16 | C[C@H]1COCCN1c1cc(-c2cnc(N)nc2C(F)F)nc(N2CCOC[C@@H]2C)n1 [Compound 26, 4′-(difluoromethyl)-2,6-bis((S)-3-methylmorpholino)-[4,5′-bipyrimidin]-2′-amine] | 47 nM | – | – | 87 nM | 191 nM
17 | C[C@@H]1COCCN1c1nc(-c2cnc(N)cc2C(F)F)nc(N2C3COCC2COC3)n1 [Compound 47, 4-(difluoromethyl)-5-[4-(3,7-dioxa-9-azabicyclo[3.3.1]nonan-9-yl)-6-[(3R)-3-methylmorpholin-4-yl]-1,35-triazin-2-yl]pyridin-2-amine] | 29 nM | – | – | 469 nM | 176 nM
18 | CC1(C)COCCN1c1nc(-c2cnc(N)cc2C(F)F)nc(N2CCOCC2(C)C)n1 [Compound 39, 5-[4,6-bis(3,3-dimethylmorpholin-4-yl)-1,3,5-triazin-2-yl]-4-(difluoromethyl)pyridin-2-amine] | 1 nM | – | – | 106 nM | 47 nM

Row | Compound | IC50 [1] | IC50 [2] | IC50 [3] | IC50 ([2]; A2058, 1 h) | IC50 ([3]; A2058, 1 h)
19 | Nc1ncc(-c2nc(N3CCOCC3)nc(N3CCSCC3)n2)c(C(F)F)n1 [Compound 21] | 54 nM | – | – | 57 nM | 216 nM
20 | C[C@H]1COC[C@H](C)N1c1nc(-c2cnc(N)cc2C(F)F)nc(N2[C@@H](C)COC[C@@H]2C)n1 [Compound 83, 5-[4,6-bis[(3S,5S)-3,5-dimethylmorpholin-4-yl]-1,3,5-triazin-2-yl]-4-(difluoromethyl)pyridin-2-amine] | 32 nM | 379 nM | 294 nM | – | –
21 | Nc1ncc(-c2cc(N3CCOCC3)nc(N3C4CCC3COC4)n2)c(C(F)(F)F)n1 [reference compound] | 121 nM | – | – | 340 nM | 740 nM
22 | Nc1ncc(-c2cc(N3CCOCC3)nc(N3CCOCC3)n2)c(C(F)(F)F)n1 [reference compound] | 644 nM | – | – | 194 nM | 384 nM
23 | C[C@H]1COCCN1c1cc(-c2cnc(N)cc2C(F)F)nc(N2CCOCC2)n1 [Compound 27, (S)-4-(difluoromethyl)-5-(6-(3-methylmorpholino)-2-morpholinopyrimidin-4-yl)pyridin-2-amine] | 65 nM | 614 nM | 766 nM | – | –
24 | C[C@@H]1COCCN1c1nc(-c2cnc(N)cc2C(F)F)nc(N2CCOCC2(C)C)n1 [Compound 45, 4-(difluoromethyl)-5-[4-(3,3-dimethylmorpholin-4-yl)-6-[(3R)-3-methylmorpholin-4-yl]-1,3,5-triazin-2-yl]pyridin-2-amine] | 7 nM | – | – | 234 nM | 93 nM
25 | Nc1ncc(-c2cc(N3CCOCC3)nc(N3C4CCC3COC4)n2)c(C(F)F)n1 [Compound 24, 2-(3-oxa-8-azabicyclo[3.2.1]octan-8-yl)-4′-(difluoromethyl)-6-morpholino-[4,5′-bipyrimidin]-2′-amine] | 35 nM | – | – | 84 nM | 167 nM
26 | C[C@H]1COCCN1c1nc(-c2cnc(N)cc2C(F)F)cc(N2CCOCC2)n1 [Compound 31, (S)-4-(difluoromethyl)-5-(2-(3-methylmorpholino)-6-morpholinopyrimidin-4-yl)pyridin-2-amine] | 15 nM | 146 nM | 124 nM | – | –
27 | Nc1cc(C(F)F)c(-c2nc(N3CCNCC3)nc(N3CCOCC3)n2)cn1 [Compound 12] | 543 nM | – | – | 208 nM | 515 nM
28 | C[C@@H]1COCCN1c1nc(-c2cnc(N)cc2C(F)F)nc(N2[C@H](C)COC[C@@H]2C)n1 [Compound 44, 4-(difluoromethyl)-5-[4-[(3R,5S)-3,5-dimethylmorpholin-4-yl]-6-[(3R)-3-methylmorpholin-4-yl]-1,3,5-triazin-2-yl]pyridin-2-amine] | 5 nM | – | – | 197 nM | 87 nM
29 | Nc1cc(C(F)(F)F)c(-c2nc(N3CCOCC3)cc(N3CCOCC3)n2)cn1 [reference compound] | 366 nM | 555 nM | 665 nM | – | –
30 | C[C@H]1COCCN1c1cc(-c2cnc(N)cc2C(F)F)nc(N2CCOC[C@@H]2C)n1 [Compound 25, 5-(2,6-bis((S)-3-methylmorpholino)pyrimidin-4-yl)-4-(difluoromethyl)pyridin-2-amine] | 32 nM | – | – | 303 nM | 294 nM
31 | C[C@@H]1COCCN1c1nc(-c2cnc(N)cc2C(F)F)nc(N2CCOC[C@H]2C)n1 [Compound 41, 5-[4,6-bis[(3R)-3-methylmorpholin-4-yl]-1,3,5-triazin-2-yl]-4-(difluoromethyl)pyridin-2-amine] | 22 nM | 436 nM | 261 nM | – | –
32 | Nc1ncc(-c2nc(N3CCNCC3)nc(N3CCOCC3)n2)c(C(F)F)n1 [Compound 13] | 1020 nM | – | – | 43 nM | 150 nM
33 | Nc1cc(C(F)F)c(-c2nc(N3C4CCCC3COC4)nc(N3C4COCC3COC4)n2)cn1 [Compound 82, 4-(difluoromethyl)-5-[4-(3,7-dioxa-9-azabicyclo[3.3.1]nonan-9-yl)-6-(3-oxa-9-azabicyclo[3.3.1]nonan-9-yl)-1,3,5-triazin-2-yl]pyridin-2-amine] | 40 nM | – | – | 329 nM | 169 nM
34 | Nc1cc(C(F)F)c(-c2nc(N3CCOCC3)nc(N3CCSCC3)n2)cn1 [Compound 20] | 13 nM | – | – | 146 nM | 250 nM
35 | C[C@H]1COCCN1c1nc(-c2cnc(N)cc2C(F)(F)F)cc(N2CCOCC2)n1 [reference compound] | 28 nM | – | – | 248 nM | 228 nM

From patent US10993947B2, “Treatment of skin lesions” (PIQUR THERAPEUTICS AG, priority 2016, dated 2021)
